Reference: ChEMBL document CHEMBL3885861, “Open TG-GATES”

Organism: Rattus norvegicus
Assay: Open TG-GATES - Regimen: Single
Assay type: toxicity, organism-based, Sprague-Dawley
Parameters: regimen Single, gender Male, age 6 weeks
Details: in vivo, po, 6 mg/kg, route gavage, dose level Middle; for APTT / Bas / Eos / Fbg / Hb / Lym / MCH / MCHC / MCV / Mono / Neu / PT / Plat / RBC / Ret / WBC: tissue Blood; for KIDNEY_L / KIDNEY_R / KIDNEY_TOTAL: tissue Kidney; for LIVER: tissue Liver; for ALP / ALT / AST / BUN / CRE / Ca / Cl / DBIL / GLC / IP / K / LDH / Na / PL / RALB / TBIL / TC / TG / TP / gamma-GTP: tissue Plasma

With `OCCN1CCN(CCCN2c3ccccc3Sc3ccc(C(F)(F)F)cc32)CC1` [FLUPHENAZINE] the TERMINAL_BW (3 h) was 196.9 g, the APTT (3 h) was 16 s and the Bas (3 h) was 0%. It also gave an Eos (3 h) of 0.6%, a Fbg (3 h) of 213.6 mg/dL and a Hb (3 h) of 12.8 g/dL. For the same compound, the Lym (3 h) was 75%, the MCH (3 h) was 21.2 pg and the MCHC (3 h) was 32.9%. For the same compound, the MCV (3 h) was 64.2 fL, the Mono (3 h) was 9.2% and the Neu (3 h) was 15.2%. It also gave a PT (3 h) of 12.5 s, a Plat (3 h) of 98.9 x10_4/uL and an RBC (3 h) of 607.8 x10_4/ul. The Ret (3 h) was 7.7%, the WBC (3 h) was 78.7 x10_2/uL and the KIDNEY_L (3 h) was 0.9 g. The KIDNEY_R (3 h) was 0.9 g, the KIDNEY_TOTAL (3 h) was 1.8 g and the LIVER (3 h) was 9.1 g. It also gave an ALP (3 h) of 915 IU/L, an ALT (3 h) of 35.8 IU/L and an AST (3 h) of 63.2 IU/L. For the same compound, the BUN (3 h) was 10 mg/dL, the CRE (3 h) was 0.5 mg/dL and the Ca (3 h) was 10.3 mg/dL. For the same compound, the Cl (3 h) was 105.4 meq/L, the DBIL (3 h) was 0.008 mg/dL and the GLC (3 h) was 191 mg/dL. For the same compound, the IP (3 h) was 10.4 mg/dL, the K (3 h) was 4.4 meq/L and the LDH (3 h) was 91.6 IU/L. For the same compound, the Na (3 h) was 138.2 meq/L, the PL (3 h) was 136.6 mg/dL and the RALB (3 h) was 3.6 g/dL. For the same compound, the TBIL (3 h) was 0.4 mg/dL, the TC (3 h) was 77.2 mg/dL and the TG (3 h) was 48 mg/dL. It also gave a TP (3 h) of 5.3 g/dL, a gamma-GTP (3 h) of 1.8 IU/L and a TERMINAL_BW (6 h) of 195.2 g. The APTT (6 h) was 16.4 s, the Bas (6 h) was 0% and the Eos (6 h) was 0.8%. The Fbg (6 h) was 211.6 mg/dL, the Hb (6 h) was 13.2 g/dL and the Lym (6 h) was 74.4%. The MCH (6 h) was 21.3 pg, the MCHC (6 h) was 32.8% and the MCV (6 h) was 64.9 fL. It also gave a Mono (6 h) of 9.4%, a Neu (6 h) of 15.8% and a PT (6 h) of 12.3 s. It also gave a Plat (6 h) of 113.8 x10_4/uL, an RBC (6 h) of 620.4 x10_4/ul and a Ret (6 h) of 8.6%. It also gave a WBC (6 h) of 89.6 x10_2/uL, a KIDNEY_L (6 h) of 0.9 g and a KIDNEY_R (6 h) of 0.9 g. It also gave a KIDNEY_TOTAL (6 h) of 1.8 g, an LIVER (6 h) of 8.8 g and an ALP (6 h) of 722.4 IU/L. The ALT (6 h) was 30 IU/L, the AST (6 h) was 56.2 IU/L and the BUN (6 h) was 10.4 mg/dL. For the same compound, the CRE (6 h) was 0.5 mg/dL, the Ca (6 h) was 10.2 mg/dL and the Cl (6 h) was 105.6 meq/L. The DBIL (6 h) was 0.014 mg/dL, the GLC (6 h) was 196 mg/dL and the IP (6 h) was 10.2 mg/dL. The K (6 h) was 4.7 meq/L, the LDH (6 h) was 90.8 IU/L and the Na (6 h) was 136 meq/L. The PL (6 h) was 144.4 mg/dL, the RALB (6 h) was 3.6 g/dL and the TBIL (6 h) was 0.4 mg/dL. It also gave a TC (6 h) of 84.6 mg/dL, a TG (6 h) of 26.8 mg/dL and a TP (6 h) of 5.3 g/dL. For the same compound, the gamma-GTP (6 h) was 1.4 IU/L, the TERMINAL_BW (9 h) was 194 g and the APTT (9 h) was 16.5 s. For the same compound, the Bas (9 h) was 0%, the Eos (9 h) was 0.6% and the Fbg (9 h) was 227 mg/dL. The Hb (9 h) was 13.2 g/dL, the Lym (9 h) was 79.2% and the MCH (9 h) was 22.1 pg. It also gave an MCHC (9 h) of 33.3%, an MCV (9 h) of 66.3 fL and a Mono (9 h) of 5.8%. It also gave a Neu (9 h) of 14.8%, a PT (9 h) of 12.5 s and a Plat (9 h) of 112.2 x10_4/uL. For the same compound, the RBC (9 h) was 598.2 x10_4/ul, the Ret (9 h) was 7.8% and the WBC (9 h) was 74.5 x10_2/uL. For the same compound, the KIDNEY_L (9 h) was 0.9 g, the KIDNEY_R (9 h) was 1 g and the KIDNEY_TOTAL (9 h) was 1.9 g. It also gave an LIVER (9 h) of 7.9 g, an ALP (9 h) of 730.2 IU/L and an ALT (9 h) of 30.4 IU/L. It also gave an AST (9 h) of 54.2 IU/L, a BUN (9 h) of 9.2 mg/dL and a CRE (9 h) of 0.5 mg/dL. The Ca (9 h) was 10.1 mg/dL, the Cl (9 h) was 106.2 meq/L and the DBIL (9 h) was 0.038 mg/dL. For the same compound, the GLC (9 h) was 189 mg/dL, the IP (9 h) was 10.5 mg/dL and the K (9 h) was 4.2 meq/L. It also gave an LDH (9 h) of 83.8 IU/L, a Na (9 h) of 138.4 meq/L and a PL (9 h) of 133.2 mg/dL. It also gave an RALB (9 h) of 3.7 g/dL, a TBIL (9 h) of 0.4 mg/dL and a TC (9 h) of 80.6 mg/dL. The TG (9 h) was 21.4 mg/dL, the TP (9 h) was 5.5 g/dL and the gamma-GTP (9 h) was 1.8 IU/L. It also gave a TERMINAL_BW (24 h) of 201.5 g, an APTT (24 h) of 16.7 s and a Bas (24 h) of 0%. The Eos (24 h) was 1.2%, the Fbg (24 h) was 208 mg/dL and the Hb (24 h) was 13.7 g/dL. The Lym (24 h) was 81.4%, the MCH (24 h) was 21.6 pg and the MCHC (24 h) was 33.2%. For the same compound, the MCV (24 h) was 64.9 fL, the Mono (24 h) was 9% and the Neu (24 h) was 8.6%. The PT (24 h) was 11.9 s, the Plat (24 h) was 112.8 x10_4/uL and the RBC (24 h) was 636 x10_4/ul. It also gave a Ret (24 h) of 7.3%, a WBC (24 h) of 85.5 x10_2/uL and a KIDNEY_L (24 h) of 0.9 g. The KIDNEY_R (24 h) was 0.9 g, the KIDNEY_TOTAL (24 h) was 1.8 g and the LIVER (24 h) was 9.6 g. The ALP (24 h) was 748.4 IU/L, the ALT (24 h) was 28.2 IU/L and the AST (24 h) was 56.6 IU/L. It also gave a BUN (24 h) of 23.8 mg/dL, a CRE (24 h) of 0.5 mg/dL and a Ca (24 h) of 11 mg/dL. The Cl (24 h) was 103.6 meq/L, the DBIL (24 h) was 0.03 mg/dL and the GLC (24 h) was 176.8 mg/dL. The IP (24 h) was 8 mg/dL, the K (24 h) was 5 meq/L and the LDH (24 h) was 90 IU/L. It also gave a Na (24 h) of 137.2 meq/L, a PL (24 h) of 154.6 mg/dL and an RALB (24 h) of 4.2 g/dL. For the same compound, the TBIL (24 h) was 0.3 mg/dL, the TC (24 h) was 84.4 mg/dL and the TG (24 h) was 94.4 mg/dL. It also gave a TP (24 h) of 6.1 g/dL and a gamma-GTP (24 h) of 1.2 IU/L.
